Laboratory results published in ChEMBL document CHEMBL1146629, “Synthesis and evaluation of phosphoramidate amino acid-based inhibitors of sialyltransferases” (Bioorg Med Chem Lett, 2003).

Key:
[1] = target: T1, CMP-N-acetylneuraminate-beta-1,4-galactoside alpha-2,3-sialyltransferase (Rattus norvegicus, UniProt Q02734); experiment: Inhibitory activity evaluated against alpha-2,3-sialyltransferase from rat liver
T1 sequence (Q02734 whole entry): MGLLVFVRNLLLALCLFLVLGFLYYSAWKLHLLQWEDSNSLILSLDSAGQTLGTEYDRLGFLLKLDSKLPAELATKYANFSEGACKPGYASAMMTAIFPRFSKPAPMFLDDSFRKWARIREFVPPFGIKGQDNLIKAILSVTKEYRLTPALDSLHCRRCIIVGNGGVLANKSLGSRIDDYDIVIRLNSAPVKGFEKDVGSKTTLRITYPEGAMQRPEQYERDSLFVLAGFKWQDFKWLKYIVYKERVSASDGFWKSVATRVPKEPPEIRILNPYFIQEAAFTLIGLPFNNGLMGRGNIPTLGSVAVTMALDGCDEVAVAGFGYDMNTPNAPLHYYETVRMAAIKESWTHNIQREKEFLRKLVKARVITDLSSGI

[2] = target: T2, Beta-galactoside alpha-2,6-sialyltransferase 1 (Rattus norvegicus, UniProt P13721); experiment: Inhibitory activity evaluated against alpha-2,6-sialyltransferase from rat liver
T2 sequence (P13721 whole entry): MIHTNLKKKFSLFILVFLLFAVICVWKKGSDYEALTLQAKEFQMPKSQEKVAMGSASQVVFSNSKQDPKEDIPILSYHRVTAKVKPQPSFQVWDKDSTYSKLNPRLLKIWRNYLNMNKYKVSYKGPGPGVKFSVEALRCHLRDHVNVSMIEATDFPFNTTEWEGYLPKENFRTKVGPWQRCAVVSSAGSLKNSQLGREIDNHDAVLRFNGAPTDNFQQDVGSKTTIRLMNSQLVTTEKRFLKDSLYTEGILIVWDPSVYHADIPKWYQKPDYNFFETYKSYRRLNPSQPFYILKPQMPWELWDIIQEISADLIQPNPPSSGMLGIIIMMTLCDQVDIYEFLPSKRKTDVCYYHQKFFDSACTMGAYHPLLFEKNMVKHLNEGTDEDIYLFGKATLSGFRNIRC

Row | SMILES | Ki [1] | Ki [2]
1 | Nc1ccn([C@@H]2O[C@H](COP(=O)(O)O)[C@@H](O)[C@H]2O)c(=O)n1 | 65 µM | 64 µM
2 | C[C@H](NP(=O)(O)OC[C@H]1OC(n2ccc(N)nc2=O)[C@H](O)C1O)C(=O)O (single isomer, unassigned) | 2300 µM | 1700 µM
3 | CC(C)C[C@H](NP(=O)(O)OC[C@H]1OC(n2ccc(N)nc2=O)[C@H](O)C1O)C(=O)O (single isomer, unassigned) | 900 µM | 2500 µM
4 | Nc1ccn(C2O[C@H](COP(=O)(O)OCC(=O)O)C(O)[C@H]2O)c(=O)n1 (single isomer, unassigned) | 710 µM | 370 µM
5 | Nc1ccn(C2O[C@H](COP(=O)(O)N[C@@H](Cc3c[nH]c4ccccc34)C(=O)O)C(O)[C@H]2O)c(=O)n1 (single isomer, unassigned) | 300 µM | 730 µM
6 | Nc1ccn(C2O[C@H](COP(=O)(O)N[C@@H](CC(=O)O)C(=O)O)C(O)[C@H]2O)c(=O)n1 (single isomer, unassigned) | 5100 µM | 2200 µM
7 | Nc1ccn(C2O[C@H](COP(=O)(O)N[C@@H](Cc3ccccc3)C(=O)O)C(O)[C@H]2O)c(=O)n1 (single isomer, unassigned) | 2300 µM | 3800 µM
8 | Nc1ccn(C2O[C@H](COP(=O)(O)NCC(=O)O)C(O)[C@H]2O)c(=O)n1 (single isomer, unassigned) | 5300 µM | 2400 µM
